The test system of this assay is human prostate. In words: Contractile responses of human prostate. It counts as cell-based. The following applies: isolated human prostatic tissue strips; antagonism of (−)-noradrenaline contractions; single antagonist concentration incubated 2 hours. As to the method:
Contractile Responses of Human Prostate
Prostatic tissue was cut into longitudinal strips (approximately 3×2×10 mm) and suspended in organ baths under a resting tension of 1 g in Krebs Ringer bicarbonate of the following composition (mM): NaCl (119), KCl (4.7), CaCl2 (2.5), KH2PO4 (1.2), MgSO4 (1.2), NaHCO3 (25), glucose (11), and gassed with 95% O2/5% CO2. The solution also contained 10 […]. Tissues were exposed to a sensitising dose of (−)-noradrenaline ([…]) and washed over a 45 minute period. Isometric contractions were obtained in response to cumulative additions of (−)-noradrenaline to obtain control curves in all tissues. A further curve was then generated in the presence or absence of antagonist (incubated for 2 hours). Antagonist affinity estimates (pA2) were determined using a single concentration of competing antagonist, pA2=−log [A]/(DR−1) where the dose ratio (DR), relative to corresponding controls, was produced by a single concentration of antagonist [A], assuming competitive antagonism and Schild regression close to unity.

Molecules are shown by their SMILES.

`COc1cc2nc(N3CCCN(C(=O)N4CCOCC4)CC3)cc(N)c2c(-c2ncco2)c1OC` [Example 28, 4-Amino-6,7-dimethoxy-2-[4-(4-morpholinecarbonyl)-1,4-diazepan-1-yl]-5-(oxazol-2-yl)quinoline] returned a pA2 value of 9.2.

Values taken from US6521629B2, “Quinoline and quinazoline compounds useful in therapy” (Pfizer Inc., priority 1997, dated 2003).
